Measured values taken from US11912693B2, “Compounds for modulating S1P1 activity and methods of using the same” (TREVENA, INC., priority 2017, dated 2024).

Columns and labels:
[1] = target: T1, human sphingosine-1-phosphate receptor 1 (S1P1) (Homo sapiens (Human), UniProt P21453); assay: Inhibition of cAMP production (HTRF cAMP HiRange), S1P1 CHO-K1 cells; type: cell-based; details: for Emax: CHO-K1, efficacy (SPAN) normalized to fingolimod, read-out: hS1P1 cAMP SPAN; for hS1P1 cAMP pEC50: inhibition of cAMP production, S1P1 CHO-K1 cells
In short: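 CHO-K1 cells stably co-expressing human S1P1 (C-terminal Prolink tag) and EA-β-arrestin2 were grown in AssayComplete Media 6 at 37° C. and 5% CO2, plated, and incubated overnight. Agonist-driven inhibition of intracellular cAMP was read by TR-FRET with the HTRF cAMP HiRange kit on a PheraStar reader. Potency is pEC50, and efficacy (SPAN) is normalized to fingolimod.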
Target sequence in this assay (P21453 whole entry, looked up): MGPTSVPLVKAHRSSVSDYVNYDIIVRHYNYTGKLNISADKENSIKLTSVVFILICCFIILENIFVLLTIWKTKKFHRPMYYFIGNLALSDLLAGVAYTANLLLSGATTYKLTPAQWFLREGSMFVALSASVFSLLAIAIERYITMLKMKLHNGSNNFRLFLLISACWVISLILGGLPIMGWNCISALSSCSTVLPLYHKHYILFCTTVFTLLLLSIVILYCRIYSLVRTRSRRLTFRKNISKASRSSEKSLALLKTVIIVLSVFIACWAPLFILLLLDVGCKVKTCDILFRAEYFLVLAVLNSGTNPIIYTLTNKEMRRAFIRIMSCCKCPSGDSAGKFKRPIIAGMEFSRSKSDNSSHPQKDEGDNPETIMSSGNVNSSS

[2] = target: T1, human sphingosine-1-phosphate receptor 1 (S1P1); assay: β-Arrestin2 recruitment assay (PathHunter), S1P1 CHO-K1 cells; type: cell-based; details: for Emax: CHO-K1, efficacy (SPAN) normalized to fingolimod, read-out: hS1P1 B-arrestin2 SPAN; for hS1P1 B-arrestin2 pEC50: β-arrestin2 recruitment, S1P1 CHO-K1 cells
In short: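 Enzyme-fragment complementation read-out: agonist-driven β-arrestin2 binding to ProLink-tagged human S1P1 in stable CHO-K1 cells restores β-galactosidase, measured 1 h at room temperature after a 60 min 37° C. compound incubation. Potency as pEC50, efficacy relative to fingolimod (SPAN).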
Target sequence in this assay (P21453 whole entry, looked up): as above
Target sequence in this assay (P32121 whole entry partner, looked up): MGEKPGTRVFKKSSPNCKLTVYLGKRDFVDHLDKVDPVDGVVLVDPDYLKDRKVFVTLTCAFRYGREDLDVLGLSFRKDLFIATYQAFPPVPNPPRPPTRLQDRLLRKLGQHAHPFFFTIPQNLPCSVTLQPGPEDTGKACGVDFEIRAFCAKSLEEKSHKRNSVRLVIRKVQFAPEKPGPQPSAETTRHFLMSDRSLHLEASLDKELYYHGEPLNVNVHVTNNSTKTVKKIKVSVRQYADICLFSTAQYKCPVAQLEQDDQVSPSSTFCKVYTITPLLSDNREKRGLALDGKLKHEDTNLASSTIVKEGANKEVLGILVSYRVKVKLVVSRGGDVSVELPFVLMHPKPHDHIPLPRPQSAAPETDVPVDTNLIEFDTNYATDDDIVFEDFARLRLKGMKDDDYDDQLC

CC(C)Cn1nnc2cc(-c3nc4ccncc4o3)ccc21 [Compound 504, 2-(1-isobutyl-1H-benzo[d][1,2,3]triazol-5-yl)oxazolo[5,4-c]pyridine]
Emax [1]: > 75%
hS1P1 cAMP pEC50 [1]: <6.5
Emax [2]: < 75%
hS1P1 B-arrestin2 pEC50 [2]: <5

Cc1ccccc1-c1nc(-c2ccc3c(c2)nnn3CC(C)(C)CO)no1 [Compound 505, 2,2-dimethyl-3-(5-(5-(o-tolyl)-1,2,4-oxadiazol-3-yl)-1H-benzo[d][1,2,3]triazol-1-yl)propan-1-ol]
hS1P1 cAMP pEC50 [1]: <6.5
hS1P1 B-arrestin2 pEC50 [2]: <5

CC(C)Oc1ccc(-c2ccc(-c3ccc4c(c3)nnn4C(C)C)cc2)cc1C#N [Compound 506, 4-isopropoxy-4′-(1-isopropyl-1H-benzo[d][1,2,3]triazol-5-yl)-[1,1′-biphenyl]-3-carbonitrile]
Emax [1]: < 75%
hS1P1 cAMP pEC50 [1]: >6.5
Emax [2]: < 75%
hS1P1 B-arrestin2 pEC50 [2]: >5

CC(C)Nc1ccc(-c2ccc(-c3ccc4c(c3)nnn4C(C)C)cc2)cc1C#N [Compound 507, 4′-(1-isopropyl-1H-benzo[d][1,2,3]triazol-5-yl)-4-(isopropylamino)-[1,1′-biphenyl]-3-carbonitrile]
Emax [1]: < 75%
hS1P1 cAMP pEC50 [1]: >6.5
Emax [2]: < 75%
hS1P1 B-arrestin2 pEC50 [2]: <5

C=CCNc1ccc(-c2ccc(-c3ccc4c(c3)nnn4C(C)C)cc2)cc1C#N [Compound 508, 4-(allylamino)-4′-(1-isopropyl-1H-benzo[d][1,2,3]triazol-5-yl)-[1,1′-biphenyl]-3-carbonitrile]
Emax [1]: > 75%
hS1P1 cAMP pEC50 [1]: <6.5
Emax [2]: < 75%
hS1P1 B-arrestin2 pEC50 [2]: <5

CCC1(CC)CC(=O)c2cc(-c3ncc(-c4cccnc4)cn3)ccc2O1 [Compound 509, 2,2-diethyl-6-(5-(pyridin-3-yl)pyrimidin-2-yl)chroman-4-one]
hS1P1 cAMP pEC50 [1]: <6.5
hS1P1 B-arrestin2 pEC50 [2]: <5

CCC1(CC)CC(=O)c2cc(-c3ncc(-c4ccncc4)cn3)ccc2O1 [Compound 510, 2,2-diethyl-6-(5-(pyridin-4-yl)pyrimidin-2-yl)chroman-4-one]
hS1P1 cAMP pEC50 [1]: >6.5
hS1P1 B-arrestin2 pEC50 [2]: >5

CC(C)n1nnc2cc(-c3nc(-c4ccc5nc[nH]c5c4)no3)ccc21 [Compound 511, 5-[3-(1H-1,3-benzodiazol-6-yl)-1,2,4-oxadiazol-5-yl]-1-(propan-2-yl)-1H-1,2,3-benzotriazole]
Emax [1]: < 75%
hS1P1 cAMP pEC50 [1]: >6.5
Emax [2]: > 75%
hS1P1 B-arrestin2 pEC50 [2]: >5

CCC1(CC)CC(=O)c2cc(-c3nc(-c4ccnc(NC(C)=O)c4)no3)ccc2O1 [Compound 512, N-(4-(5-(2,2-diethyl-4-oxochroman-6-yl)-1,2,4-oxadiazol-3-yl)pyridin-2-yl)acetamide]
hS1P1 cAMP pEC50 [1]: >6.5
hS1P1 B-arrestin2 pEC50 [2]: >5

COc1cccc2nc(-c3ccc4c(c3)nnn4C(C)C)oc12 [Compound 515, 2-(1-isopropyl-1H-benzo[d][1,2,3]triazol-5-yl)-7-methoxybenzo[d]oxazole]
Emax [1]: > 75%
hS1P1 cAMP pEC50 [1]: >6.5
Emax [2]: > 75%
hS1P1 B-arrestin2 pEC50 [2]: >5

Cc1ccccc1-c1c[nH]c(-c2ccc3c(c2)nnn3C(C)C)c1 [Compound 516, 5-[4-(2-methylphenyl)-1H-pyrrol-2-yl]-1-(propan-2-yl)-1H-1,2,3-benzotriazole]
Emax [1]: < 75%
hS1P1 cAMP pEC50 [1]: <6.5
Emax [2]: < 75%
hS1P1 B-arrestin2 pEC50 [2]: >5

Cc1ccccc1-c1cc(-c2ccc3c(c2)nnn3C(C)C)n(C)c1 [Compound 517, 5-[1-methyl-4-(2-methylphenyl)-1H-pyrrol-2-yl]-1-(propan-2-yl)-1H-1,2,3-benzotriazole]
Emax [1]: < 75%
hS1P1 cAMP pEC50 [1]: <6.5
Emax [2]: < 75%
hS1P1 B-arrestin2 pEC50 [2]: >5

Cc1cn(C)nc1-c1noc(-c2ccc3c(c2)nnn3CC(C)(C)O)n1 [Compound 518, 1-{5-[3-(1,4-dimethyl-1H-pyrazol-3-yl)-1,2,4-oxadiazol-5-yl]-1H-1,2,3-benzotriazol-1-yl}-2-methylpropan-2-ol]
hS1P1 cAMP pEC50 [1]: <6.5
hS1P1 B-arrestin2 pEC50 [2]: <5

CCC1(CC)CC(=O)c2cc(-c3nc(-c4ccc5ncccc5c4)no3)ccc2O1 [Compound 521, 2,2-diethyl-6-(3-(quinolin-6-yl)-1,2,4-oxadiazol-5-yl)chroman-4-one]
hS1P1 cAMP pEC50 [1]: <6.5
hS1P1 B-arrestin2 pEC50 [2]: <5

CCC1(CC)CC(=O)c2cc(-c3nc(-c4ccc5cnccc5c4)no3)ccc2O1 [Compound 522, 2,2-diethyl-6-(3-(isoquinolin-6-yl)-1,2,4-oxadiazol-5-yl)chroman-4-one]
hS1P1 cAMP pEC50 [1]: <6.5
hS1P1 B-arrestin2 pEC50 [2]: <5

COc1ccc(-c2nc(-c3ccc4c(c3)nnn4CC(C)(C)CO)no2)c(C)c1 [Compound 523, 3-(5-(5-(4-methoxy-2-methylphenyl)-1,2,4-oxadiazol-3-yl)-1H-benzo[d][1,2,3]triazol-1-yl)-2,2-dimethylpropan-1-ol]
hS1P1 cAMP pEC50 [1]: <6.5
hS1P1 B-arrestin2 pEC50 [2]: <5

Cc1ccsc1-c1nc(-c2ccc3c(c2)nnn3CC(C)(C)CO)no1 [Compound 524, 2,2-dimethyl-3-(5-(5-(3-methylthiophen-2-yl)-1,2,4-oxadiazol-3-yl)-1H-benzo[d][1,2,3]triazol-1-yl)propan-1-ol]
hS1P1 cAMP pEC50 [1]: >6.5
hS1P1 B-arrestin2 pEC50 [2]: >5

COc1ccccc1-c1nc(-c2ccc3c(c2)nnn3CC(C)(C)CO)no1 [Compound 525, 3-(5-(5-(2-methoxyphenyl)-1,2,4-oxadiazol-3-yl)-1H-benzo[d][1,2,3]triazol-1-yl)-2,2-dimethylpropan-1-ol]
hS1P1 cAMP pEC50 [1]: <6.5
hS1P1 B-arrestin2 pEC50 [2]: <5

CC(C)(CO)Cn1nnc2cc(-c3noc(-c4ccccc4Cl)n3)ccc21 [Compound 526, 3-(5-(5-(2-chlorophenyl)-1,2,4-oxadiazol-3-yl)-1H-benzo[d][1,2,3]triazol-1-yl)-2,2-dimethylpropan-1-ol]
hS1P1 cAMP pEC50 [1]: <6.5
hS1P1 B-arrestin2 pEC50 [2]: <5

CCc1ccccc1-c1nc(-c2ccc3c(c2)nnn3CC(C)(C)CO)no1 [Compound 527, 3-(5-(5-(2-ethylphenyl)-1,2,4-oxadiazol-3-yl)-1H-benzo[d][1,2,3]triazol-1-yl)-2,2-dimethylpropan-1-ol]
hS1P1 cAMP pEC50 [1]: <6.5
hS1P1 B-arrestin2 pEC50 [2]: <5

CC(C)(CO)Cn1nnc2cc(-c3noc(-c4ccncc4C(F)(F)F)n3)ccc21 [Compound 528, 2,2-dimethyl-3-(5-(5-(3-(trifluoromethyl)pyridin-4-yl)-1,2,4-oxadiazol-3-yl)-1H-benzo[d][1,2,3]triazol-1-yl)propan-1-ol]
hS1P1 cAMP pEC50 [1]: <6.5
hS1P1 B-arrestin2 pEC50 [2]: <5

CC(C)(CO)Cn1nnc2cc(-c3noc(-c4cnccc4C(F)(F)F)n3)ccc21 [Compound 529, 2,2-dimethyl-3-(5-(5-(4-(trifluoromethyl)pyridin-3-yl)-1,2,4-oxadiazol-3-yl)-1H-benzo[d][1,2,3]triazol-1-yl)propan-1-ol]
hS1P1 cAMP pEC50 [1]: <6.5
hS1P1 B-arrestin2 pEC50 [2]: >5

CCC1(CC)CC(=O)c2cc(-c3ncc(-c4ccccn4)cn3)ccc2O1 [Compound 530, 2,2-diethyl-6-(5-(pyridin-2-yl)pyrimidin-2-yl)chroman-4-one]
hS1P1 cAMP pEC50 [1]: <6.5
hS1P1 B-arrestin2 pEC50 [2]: <5

COc1cc(NC(C)=O)ccc1-c1noc(-c2ccc3c(c2)nnn3C(C)C)n1 [Compound 532, N-(3-methoxy-4-{5-[1-(propan-2-yl)-1H-1,2,3-benzotriazol-5-yl]-1,2,4-oxadiazol-3-yl}phenyl)acetamide]
Emax [1]: > 75%
hS1P1 cAMP pEC50 [1]: >6.5
Emax [2]: < 75%
hS1P1 B-arrestin2 pEC50 [2]: >5

COc1cc(NC(C)=O)ccc1-c1noc(-c2ccc3nonc3c2)n1 [Compound 533, N-{4-[5-(2,1,3-benzoxadiazol-5-yl)-1,2,4-oxadiazol-3-yl]-3-methoxyphenyl}acetamide]
hS1P1 cAMP pEC50 [1]: <6.5
hS1P1 B-arrestin2 pEC50 [2]: <5

COCCn1cc(-c2ccccc2C)cc1-c1ccc2c(c1)nnn2C(C)C [Compound 534, 5-[1-(2-methoxyethyl)-4-(2-methylphenyl)-1H-pyrrol-2-yl]-1-(propan-2-yl)-1H-1,2,3-benzotriazole]
Emax [1]: < 75%
hS1P1 cAMP pEC50 [1]: <6.5
Emax [2]: < 75%
hS1P1 B-arrestin2 pEC50 [2]: <5

CC1CC(=O)c2ccc(-c3nc(-c4cccnc4)no3)cc2O1 (centres unmarked) [Compound 535, 2-methyl-7-[3-(pyridin-3-yl)-1,2,4-oxadiazol-5-yl]-3,4-dihydro-2H-1-benzopyran-4-one]
hS1P1 cAMP pEC50 [1]: <6.5
hS1P1 B-arrestin2 pEC50 [2]: >5

CC1CC(=O)c2ccc(-c3nc(-c4ccncc4)no3)cc2O1 (centres unmarked) [Compound 536, 2-methyl-7-[3-(pyridin-4-yl)-1,2,4-oxadiazol-5-yl]-3,4-dihydro-2H-1-benzopyran-4-one]
hS1P1 cAMP pEC50 [1]: <6.5
hS1P1 B-arrestin2 pEC50 [2]: >5

CCC1(CC)CC(=O)c2cc(-c3nc(-c4cncc(C(N)=O)c4)no3)ccc2O1 [Compound 537, 5-(5-(2,2-diethyl-4-oxochroman-6-yl)-1,2,4-oxadiazol-3-yl)nicotinamide]
hS1P1 cAMP pEC50 [1]: >6.5
hS1P1 B-arrestin2 pEC50 [2]: >5

CCC1(CC)CC(=O)c2cc(-c3nc(-c4cncc(NC(C)=O)c4)no3)ccc2O1 [Compound 538, N-(5-(5-(2,2-diethyl-4-oxochroman-6-yl)-1,2,4-oxadiazol-3-yl)pyridin-3-yl)acetamide]
hS1P1 cAMP pEC50 [1]: >6.5
hS1P1 B-arrestin2 pEC50 [2]: >5
